Results reported in patent publication US9283222B2 (priority 2006, dated 2016).

The compounds below were run against Recombinant Human Poly(ADP-Ribose) Polymerase (PARP), PARP-1 (Homo sapiens (Human), UniProt P09874). Conditions: read-out: PARP-1 (Ki); Table 1; text calls the values EC50s.
Recombinant Human Poly(ADP-Ribose) Polymerase (PARP), PARP-1, sequence (P09874 whole entry): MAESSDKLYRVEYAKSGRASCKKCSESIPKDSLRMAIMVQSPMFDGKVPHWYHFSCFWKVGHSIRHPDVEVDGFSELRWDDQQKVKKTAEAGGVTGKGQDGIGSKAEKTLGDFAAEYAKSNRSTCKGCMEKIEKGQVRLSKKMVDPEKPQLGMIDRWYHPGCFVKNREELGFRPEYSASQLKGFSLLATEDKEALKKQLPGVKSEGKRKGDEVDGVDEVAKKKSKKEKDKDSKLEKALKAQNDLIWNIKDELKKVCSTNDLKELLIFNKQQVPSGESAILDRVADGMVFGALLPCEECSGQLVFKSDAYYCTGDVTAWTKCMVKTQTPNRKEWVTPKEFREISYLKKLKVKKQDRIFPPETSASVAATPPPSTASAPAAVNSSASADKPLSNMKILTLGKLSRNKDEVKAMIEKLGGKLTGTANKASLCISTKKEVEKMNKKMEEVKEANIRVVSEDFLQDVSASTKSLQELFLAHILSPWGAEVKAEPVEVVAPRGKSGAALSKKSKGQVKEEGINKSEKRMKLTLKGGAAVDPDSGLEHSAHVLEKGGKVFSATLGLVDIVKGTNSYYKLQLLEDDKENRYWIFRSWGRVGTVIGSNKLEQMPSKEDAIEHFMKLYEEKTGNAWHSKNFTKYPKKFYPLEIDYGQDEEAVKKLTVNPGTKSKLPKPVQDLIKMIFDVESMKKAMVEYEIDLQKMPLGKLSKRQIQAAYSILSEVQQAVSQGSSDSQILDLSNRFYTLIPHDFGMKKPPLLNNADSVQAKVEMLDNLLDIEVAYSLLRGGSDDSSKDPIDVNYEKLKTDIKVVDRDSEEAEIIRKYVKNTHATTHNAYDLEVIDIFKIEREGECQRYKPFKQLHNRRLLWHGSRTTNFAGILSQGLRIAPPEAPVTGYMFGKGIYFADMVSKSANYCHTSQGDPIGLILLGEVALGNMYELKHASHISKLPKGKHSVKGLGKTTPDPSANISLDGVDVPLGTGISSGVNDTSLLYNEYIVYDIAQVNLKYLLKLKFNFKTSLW
Experimental: Nicotinamide[2,5′,8-3H]adenine dinucleotide and strepavidin SPA beads were purchased from Amersham Biosiences. […] NAD^+, histone, aminobenzamide, 3-amino benzamide and Calf Thymus DNA (dcDNA) were purchased from Sigma. Stem loop oligonucleotide containing MCAT sequence was obtained from Qiagen. The oligos were dissolved to 1 mM in annealing buffer containing 10 mM Tris HCl pH 7.5, 1 mM EDTA, and 50 mM NaCl, incubated for 5 minutes at 95° C., and annealed at 45° C. for 45 minutes. […] Biotinylated histone H1 was prepared by treating the protein with Sulfo-NHS-LC-Biotin from Pierce. The biotinylation reaction was conducted by slowly and intermittently adding 3 equivalents of 10 mM Sulfo-NHS-LC-Biotin to 100 μM Histone H1 in phosphate-buffered saline, pH 7.5, at 4° C. with gentle vortexing over 1 minute followed by subsequent 4° C. incubation for 1 hour. Streptavidin coated (FlashPlate Plus) microplates were purchased from Perkin Elmer.
PARP1 assay was conducted in PARP assay buffer containing 50 mM Tris pH 8.0, 1 mM DTT, 4 mM MgCl2. […] Auto reactions utilizing SPA bead-based detection were carried out in 100 μL volumes in white 96 well plates.

SMILES	Ki
COC(=O)c1cccc(CCc2n[nH]c(=O)c3c2CCCC3)c1 [Example 265, methyl 3-(2-(4-oxo-3,4,5,6,7,8-hexahydrophthalazin-1-yl)ethyl)benzoate]	58 nM
O=C(c1ccc(-c2cc(CCc3n[nH]c(=O)c4c3CCCC4)ccc2F)cc1)N1CCOCC1 [Example 267, 4-(2-(6-fluoro-4′-(morpholin-4-ylcarbonyl)-1,1′-biphenyl-3-yl)ethyl)-5,6,7,8-tetrahydrophthalazin-1(2H)-one]	534 nM
O=C(c1ccccc1-c1cc(CCc2n[nH]c(=O)c3c2CCCC3)ccc1F)N1CCCC1 [Example 268, 4-(2-(6-fluoro-2′-(pyrrolidin-1-ylcarbonyl)-1,1′-biphenyl-3-yl)ethyl)-5,6,7,8-tetrahydrophthalazin-1(2H)-one]	638 nM
Nc1cc(Cc2n[nH]c(=O)c3c2CCCC3)ccc1Cl [Example 278, 4-(3-amino-4-chlorobenzyl)-5,6,7,8-tetrahydrophthalazin-1(2H)-one]	185 nM
COc1ccc(Cc2n[nH]c(=O)c3c2CCCC3)cc1N [Example 279, 4-(3-amino-4-methoxybenzyl)-5,6,7,8-tetrahydrophthalazin-1(2H)-one]	467 nM
Nc1cc(Cc2n[nH]c(=O)c3c2CCCC3)ccc1O [Example 280, 4-(3-amino-4-hydroxybenzyl)-5,6,7,8-tetrahydrophthalazin-1(2H)-one]	303 nM
Cc1ccc(Cc2n[nH]c(=O)c3c2CCCC3)cc1N [Example 281, 4-(3-amino-4-methylbenzyl)-5,6,7,8-tetrahydrophthalazin-1(2H)-one]	309 nM
COc1ccc(C(=O)CCC(=O)Nc2cc(Cc3n[nH]c(=O)c4c3CCCC4)ccc2F)cc1 [Example 289, N-(2-fluoro-5-((4-oxo-3,4,5,6,7,8-hexahydrophthalazin-1-yl)methyl)phenyl)-4-(4-methoxyphenyl)-4-oxobutanamide]	0.7 nM
CC1=C(C)C(=O)N(c2cc(Cc3n[nH]c(=O)c4c3CCCC4)ccc2F)C1=O [Example 290, 1-(2-fluoro-5-((4-oxo-3,4,5,6,7,8-hexahydrophthalazin-1-yl)methyl)phenyl)-3,4-dimethyl-1H-pyrrole-2,5-dione]	1 nM
O=C1C2CC2C(=O)N1c1cc(Cc2n[nH]c(=O)c3c2CCCC3)ccc1F (centres unmarked) [Example 291, 3-(2-fluoro-5-((4-oxo-3,4,5,6,7,8-hexahydrophthalazin-1-yl)methyl)phenyl)-3-azabicyclo(3.1.0)hexane-2,4-dione]	0.7 nM
O=C(COc1ccccc1)N1CCNC(Cc2n[nH]c(=O)c3c2CCCC3)C1 (centres unmarked) [Example 292, 4-((4-(phenoxyacetyl)piperazin-2-yl)methyl)-5,6,7,8-tetrahydrophthalazin-1(2H)-one]	116 nM
O=C(CCC(=O)c1ccccc1)Nc1cccc(CCc2n[nH]c(=O)c3c2CCCC3)c1 [Example 294, 4-oxo-N-(3-(2-(4-oxo-3,4,5,6,7,8-hexahydrophthalazin-1-yl)ethyl)phenyl)-4-phenylbutanamide]	204 nM
O=C1C2CCCCC2C(=O)N1c1cc(Cc2n[nH]c(=O)c3c2CCCC3)ccc1F (centres unmarked) [Example 298, 2-(2-fluoro-5-((4-oxo-3,4,5,6,7,8-hexahydrophthalazin-1-yl)methyl)phenyl)hexahydro-1H-isoindole-1,3(2H)-dione]	2 nM
CC1(C)CC(=O)N(c2cc(Cc3n[nH]c(=O)c4c3CCCC4)ccc2F)C1=O [Example 299, 1-(2-fluoro-5-((4-oxo-3,4,5,6,7,8-hexahydrophthalazin-1-yl)methyl)phenyl)-3,3-dimethylpyrrolidine-2,5-dione]	4 nM
O=C1CCCC(=O)N1c1cc(Cc2n[nH]c(=O)c3c2CCCC3)ccc1F [Example 303, 1-(2-fluoro-5-((4-oxo-3,4,5,6,7,8-hexahydrophthalazin-1-yl)methyl)phenyl)piperidine-2,6-dione]	0.8 nM
O=c1[nH]nc(Cc2ccc(F)c(N3CCCS3(=O)=O)c2)c2c1CCCC2 [Example 305, 4-(3-(1,1-dioxidoisothiazolidin-2-yl)-4-fluorobenzyl)-5,6,7,8-tetrahydrophthalazin-1(2H)-one]	3 nM

Next, values leading:

Ki	SMILES
1050 nM	O=C(c1cccc(-c2cc(CCc3n[nH]c(=O)c4c3CCCC4)ccc2F)c1)N1CCCC1 [Example 269, 4-(2-(6-fluoro-3′-(pyrrolidin-1-ylcarbonyl)-1,1′-biphenyl-3-yl)ethyl)-5,6,7,8-tetrahydrophthalazin-1(2H)-one]
487 nM	O=C(NC1CC1)c1cccc(-c2cc(CCc3n[nH]c(=O)c4c3CCCC4)ccc2F)c1 [Example 270, N-cyclopropyl-2′-fluoro-5′-(2-(4-oxo-3,4,5,6,7,8-hexahydrophthalazin-1-yl)ethyl)-1,1′-biphenyl-3-carboxamide]
1140 nM	CN(C)CCNC(=O)c1cccc(-c2cc(CCc3n[nH]c(=O)c4c3CCCC4)ccc2F)c1 [Example 271, N-(2-(dimethylamino)ethyl)-2′-fluoro-5′-(2-(4-oxo-3,4,5,6,7,8-hexahydrophthalazin-1-yl)ethyl)-1,1′-biphenyl-3-carboxamide]
204 nM	NC(=O)c1cccc(-c2cc(CCc3n[nH]c(=O)c4c3CCCC4)ccc2F)c1 [Example 272, 2′-fluoro-5′-(2-(4-oxo-3,4,5,6,7,8-hexahydrophthalazin-1-yl)ethyl)-1,1′-biphenyl-3-carboxamide]
257 nM	CS(=O)(=O)Nc1cccc(-c2cc(CCc3n[nH]c(=O)c4c3CCCC4)ccc2F)c1 [Example 273, N-(2′-fluoro-5′-(2-(4-oxo-3,4,5,6,7,8-hexahydrophthalazin-1-yl)ethyl)-1,1′-biphenyl-3-yl)methanesulfonamide]
222 nM	CC(=O)Nc1cccc(-c2cc(CCc3n[nH]c(=O)c4c3CCCC4)ccc2F)c1 [Example 274, N-(2′-fluoro-5′-(2-(4-oxo-3,4,5,6,7,8-hexahydrophthalazin-1-yl)ethyl)-1,1′-biphenyl-3-yl)acetamide]
471 nM	CC(Cc1n[nH]c(=O)c2c1CCCC2)c1ccc(F)c(-c2cccc(C(=O)N3CCOCC3)c2)c1 (centres unmarked) [Example 275, 4-(2-(6-fluoro-3′-(morpholin-4-ylcarbonyl)-1,1′-biphenyl-3-yl)propyl)-5,6,7,8-tetrahydrophthalazin-1(2H)-one]
943 nM	CC(Cc1n[nH]c(=O)c2c1CCCC2)c1ccc(F)c(-c2cccc(C(=O)N3CCCC3)c2)c1 (centres unmarked) [Example 276, 4-(2-(6-fluoro-3′-(pyrrolidin-1-ylcarbonyl)-1,1′-biphenyl-3-yl)propyl)-5,6,7,8-tetrahydrophthalazin-1(2H)-one]
436 nM	CC(Cc1n[nH]c(=O)c2c1CCCC2)c1ccc(F)c(-c2cccc(C(=O)NC3CC3)c2)c1 (centres unmarked) [Example 277, N-cyclopropyl-2′-fluoro-5′-(1-methyl-2-(4-oxo-3,4,5,6,7,8-hexahydrophthalazin-1-yl)ethyl)-1,1′-biphenyl-3-carboxamide]
1710 nM	CC(Cc1n[nH]c(=O)c2c1CCCC2)c1cccc(-c2cccc(C(=O)NCCN(C)C)c2)c1 (centres unmarked) [Example 282, N-(2-(dimethylamino)ethyl)-3′-(1-methyl-2-(4-oxo-3,4,5,6,7,8-hexahydrophthalazin-1-yl)ethyl)-1,1′-biphenyl-3-carboxamide]
442 nM	CC(Cc1n[nH]c(=O)c2c1CCCC2)c1cccc(-c2cccc(C(N)=O)c2)c1 (centres unmarked) [Example 283, 3′-(1-methyl-2-(4-oxo-3,4,5,6,7,8-hexahydrophthalazin-1-yl)ethyl)-1,1′-biphenyl-3-carboxamide]
2210 nM	CC(=O)Nc1cccc(-c2cccc(C(C)Cc3n[nH]c(=O)c4c3CCCC4)c2)c1 (centres unmarked) [Example 284, N-(3′-(1-methyl-2-(4-oxo-3,4,5,6,7,8-hexahydrophthalazin-1-yl)ethyl)-1,1′-biphenyl-3-yl)acetamide]
58 nM	CC(=O)Nc1cccc(-c2cccc(C(C)c3n[nH]c(=O)c4c3CCCC4)c2)c1 (centres unmarked) [Example 286, N-(3′-(1-(4-oxo-3,4,5,6,7,8-hexahydrophthalazin-1-yl)ethyl)-1,1′-biphenyl-3-yl)acetamide]
771 nM	CC(c1cccc(-c2cccc(C(=O)NCCN(C)C)c2)c1)c1n[nH]c(=O)c2c1CCCC2 (centres unmarked) [Example 287, N-(2-(dimethylamino)ethyl)-3′-(1-(4-oxo-3,4,5,6,7,8-hexahydrophthalazin-1-yl)ethyl)-1,1′-biphenyl-3-carboxamide]
431 nM	CC(Cc1n[nH]c(=O)c2c1CCCC2)c1cccc(C(=O)O)c1 (centres unmarked) [Example 288, 3-(1-methyl-2-(4-oxo-3,4,5,6,7,8-hexahydrophthalazin-1-yl)ethyl)benzoic acid]
912 nM	CC(Cc1n[nH]c(=O)c2c1CCCC2)c1ccc(F)c(-c2cccc(C(N)=O)c2)c1 (centres unmarked) [Example 295, 2′-fluoro-5′-(1-methyl-2-(4-oxo-3,4,5,6,7,8-hexahydrophthalazin-1-yl)ethyl)-1,1′-biphenyl-3-carboxamide]
683 nM	CC(=O)Nc1cccc(-c2cc(C(C)Cc3n[nH]c(=O)c4c3CCCC4)ccc2F)c1 (centres unmarked) [Example 296, N-(2′-fluoro-5′-(1-methyl-2-(4-oxo-3,4,5,6,7,8-hexahydrophthalazin-1-yl)ethyl)-1,1′-biphenyl-3-yl)acetamide]
1440 nM	CC(Cc1n[nH]c(=O)c2c1CCCC2)c1ccc(F)c(-c2cccc(CNS(C)(=O)=O)c2)c1 (centres unmarked) [Example 297]
29 nM	O=C(NCc1cccs1)c1cccc(Cc2n[nH]c(=O)c3c2CCCC3)c1 [Example 309, 3-((4-oxo-3,4,5,6,7,8-hexahydrophthalazin-1-yl)methyl)-N-(thien-2-ylmethyl)benzamide]
26 nM	O=C(NCc1ccsc1)c1cccc(Cc2n[nH]c(=O)c3c2CCCC3)c1 [Example 310, 3-((4-oxo-3,4,5,6,7,8-hexahydrophthalazin-1-yl)methyl)-N-(thien-3-ylmethyl)benzamide]
58 nM	O=C(NCc1cccnc1)c1cccc(Cc2n[nH]c(=O)c3c2CCCC3)c1 [Example 311, 3-((4-oxo-3,4,5,6,7,8-hexahydrophthalazin-1-yl)methyl)-N-(pyridin-3-ylmethyl)benzamide]
131 nM	O=C(NCc1ccncc1)c1cccc(Cc2n[nH]c(=O)c3c2CCCC3)c1 [Example 312, 3-((4-oxo-3,4,5,6,7,8-hexahydrophthalazin-1-yl)methyl)-N-(pyridin-4-ylmethyl)benzamide]
